# Measurements from ChEMBL document CHEMBL1201862, “PubChem BioAssay data set” (2004).
# Calls of active or inactive are those of the source.
# Key:
# Assay type in all cases: functional
# [1] = Late stage results for the probe development effort to identify inhibitors of Plasmodium falciparum gametocytes: Luminescence-based cell-based high throughput dose response assay to identify inhibitors of viability of late stage Plasmodium falciparum gametocytes.
# Vero = Vero cell cytotoxicity, cytotoxicity control for flavivirus capping enzyme inhibitors (AID 588742); conditions: Chlorocebus sabaeus
# [2] = target: Glutathione-S-transferase (Schistosoma japonicum, UniProt Q26513); assay: biotin-GST/anti-GST TR-FRET signal inhibitors, dose response, artefact control for Vif-APOBEC3G degradation inhibitor project, biochemical (AID 1117362)
# Glutathione-S-transferase, sequence (Q26513 whole entry): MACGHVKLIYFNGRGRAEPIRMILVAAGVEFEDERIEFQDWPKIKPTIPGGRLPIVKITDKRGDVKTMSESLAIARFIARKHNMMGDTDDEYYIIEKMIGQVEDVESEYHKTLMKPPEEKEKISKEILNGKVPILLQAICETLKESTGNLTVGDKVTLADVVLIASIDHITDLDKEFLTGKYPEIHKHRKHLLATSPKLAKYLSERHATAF
# [3] = target: G-protein coupled receptor 183 (Homo sapiens, UniProt P32249); assay: SAR confirmation of small molecule antagonists of the EBI2 receptor via a luminescent beta-arrestin assa.
# G-protein coupled receptor 183, sequence (P32249 whole entry): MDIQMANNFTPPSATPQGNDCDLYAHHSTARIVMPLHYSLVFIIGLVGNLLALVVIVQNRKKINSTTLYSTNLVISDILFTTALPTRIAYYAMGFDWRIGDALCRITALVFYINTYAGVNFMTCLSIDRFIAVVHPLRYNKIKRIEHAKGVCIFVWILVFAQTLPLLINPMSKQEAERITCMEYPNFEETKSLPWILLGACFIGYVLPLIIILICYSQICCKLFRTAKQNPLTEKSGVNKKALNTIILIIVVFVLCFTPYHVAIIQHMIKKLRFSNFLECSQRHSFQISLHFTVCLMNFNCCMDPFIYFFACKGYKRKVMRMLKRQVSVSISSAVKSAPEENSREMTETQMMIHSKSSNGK
smiles,measurement,setting,value
O=C(Nc1nccs1)c1cn(-c2ccccc2)nc1-c1ccc(F)cc1,IC50,[1],> 74.4 µM (inactive)
Oc1ccccc1/C=N/c1c(-c2ccco2)nc2ccccn12,CC50,Vero,> 40 µM (active)
same,IC50,[2],> 100 µM (active)
CC(C)c1ccc(CN2CCN(C(=O)/C=C/c3ccc(Br)cc3)CC2)cc1,IC50,[3],0.00592 µM (active)
